The values below are quoted from earlier work in patent publication US20100086625A1, “METHODS FOR TREATING SKIN LESIONS” (priority 2008, published 2010).

The data set deals with cold sores. The settings on record: oral.

`CC(=O)OCC(CCn1cnc2cnc(N)nc21)COC(C)=O` [famciclovir]: the “shortening of the herpes infection” value (1500 mg) is listed as “two”. As for `CC(C)[C@H](N)C(=O)OCCOCn1cnc2c(=O)[nH]c(N)nc21` [valacyclovir], the “shortening of a herpes infection” value (2 gm twice a day for one day) is “over one”.
